Measurements published in patent publication US10314312B2, “Synergistic antimicrobial composition of zinc pyrithione” (Jubilant Life Sciences Limited, priority 2014, dated 2019).

Legend:
[1] = system: Malassezia furfur (ATCC No. 14521); experiment: Anti-dandruff efficacy: zone of inhibition by disc diffusion method; format: cell-based; parameters: key: XX denotes No Activity
Procedure: (§1) The anti-dandruff efficacy was determined by measuring zone of inhibition using disc diffusion method against Malassezia furfur (ATCC No. 14521). […] The culture plates were incubated at 37° C. for 48 hrs and antifungal activity was evaluated by observing an area of no growth around the disc. An area of no growth around the swatch is known as a zone of inhibition.

[2] = Anti-leaching (biocide release rate) of paint formulations, ASTM-D-6903-07
Procedure: The biocide (ZPTO) release rate in each test sample is calculated by the following formula: Biocide (ZPTO) release rate=(CZPTO*V*D)/(T*A) wherein, CZPTO=concentration of ZPTO in substitute ocean water (μgL^−1); V=substitute ocean water volume (L); D=hours per day; T=rotation period (hr); A=Area of paint (cm^2).

[3] = combination: ZnP 0.25 w/w % + zinc salt 0.25 w/w %
[4] = zinc salt alone 0.25 w/w %, no ZnP
[5] = zinc salt alone 0.50 w/w %, no ZnP
[6] = zinc salt alone 1.00 w/w %, no ZnP
[7] = zinc salt alone 1.50 w/w %, no ZnP
[8] = zinc salt alone 2.00 w/w %, no ZnP
[9] = combination: ZnP 0.25 w/w % + zinc salt 0.50 w/w %
[10] = combination: ZnP 0.25 w/w % + zinc salt 1.50 w/w %

Procedure for M. furfur: as §1
The SI is calculated based on F. C. […] SI=Qa/QA+Qb/QB Qa=the concentration of compound A in the blend; Qb=the concentration of compound B in the blend; QA=the concentration of compound A as the only biocide; QB=the concentration of compound B as the only biocide.
If SI (the Synergy Index) is greater than one, antagonism between the products is indicated. If the sum is equal to one, additivity is indicated. But when SI is less than one, synergism is shown, i.e. the lower the SI the greater the synergy shown.

Compound	Zone of Inhibition [1, 3]	Zone of Inhibition [1, 4]	Zone of Inhibition [1, 5]	Zone of Inhibition [1, 6]	Zone of Inhibition [1, 7]	Zone of Inhibition [1, 8]	Zone of Inhibition [1, 9]	Zone of Inhibition [1, 10]	Zone of Inhibition ([1]; combination: ZnP 0.50 w/w % + zinc salt 1.50 w/w %)	Zone of Inhibition ([1]; combination: ZnP 1.00 w/w % + zinc salt 0.25 w/w %)	Zone of Inhibition ([1]; combination: ZnP 1.00 w/w % + zinc salt 0.50 w/w %)	QB = the concentration of compound B as the only biocide (minimum inhibitory concentration) (M. furfur; zinc nicotinate alone)	Zone of Inhibition ([1]; ZnP alone 0.25 w/w %)	Zone of Inhibition ([1]; ZnP alone 0.50 w/w %)	Zone of Inhibition ([1]; ZnP alone 1.00 w/w %)	Zone of Inhibition ([1]; ZnP alone 1.50 w/w %)	Zone of Inhibition ([1]; ZnP alone 2.00 w/w %)	QA = the concentration of compound A as the only biocide (minimum inhibitory concentration) (M. furfur; zinc pyrithione alone)	ZPTO Conc (av.) ([2]; ZPTO concentration in artificial marine water (substitute ocean water), paint formulation)	Rate of Biocide Leaching (CZPTO * V*D)/(T*A) ([2]; paint formulation in substitute ocean water)
NCC(=O)[O-].NCC(=O)[O-].[Zn+2] [Zn-Gly]	30 mm	XX	XX	XX	XX	XX														
CC(O)C(=O)[O-].CC(O)C(=O)[O-].[Zn+2] (centres unmarked) [Zn-Lac]	38 mm	XX	XX	XX	XX	XX														
O=C([O-])c1ccccn1.O=C([O-])c1ccccn1.[Zn+2] [Zn-Pic]	35 mm	XX	XX	XX	XX	XX	38 mm	38 mm												
[O]=[Zn] [ZnO, zinc oxide]	30 mm	XX	XX	XX	XX	XX		32 mm												
Zinc Nicotinate [Zn-Nic]	40 mm	XX	XX	XX	XX	6 mm	40 mm	38 mm	48 mm	32 mm	48 mm	35000 (QB)								
Zinc pyrithione [ZPTO]													30 mm	30 mm	30 mm	30 mm	30 mm	8	2145.6 μgL−1	171.65 μgcm^2d^−1
